Holding throughout (experiment): biochemical
What all share (type): biochemical

Assay [1] addresses 363 human kinases (including Aurora A/B/C) (Homo sapiens, UniProt P16591). The conditions noted are these: FER, [ATP] 50 µM.
Description: (§1) However, the Aurora A/B selectivity ratios derived from our in vitro and in vivo data can be compared to prioritize inhibitors.
Assay [2] has as its target 363 human kinases (including Aurora A/B/C) (Homo sapiens, UniProt P04626). As to conditions: ERBB2/HER2, [ATP] 20 µM.
Description: as §1
Assay [3] addresses 363 human kinases (including Aurora A/B/C) (Homo sapiens, UniProt P22607). The conditions noted are these: FGFR3, [ATP] 30 µM.
Description: as §1
Assay [4] addresses 363 human kinases (including Aurora A/B/C) (Homo sapiens, UniProt O60674). As to conditions: JAK2.
Description: as §1
Assay [5] concerns the target T1, 363 human kinases (including Aurora A/B/C) (Homo sapiens, UniProt Q86SG6).
T1 sequence (Q86SG6 1-692): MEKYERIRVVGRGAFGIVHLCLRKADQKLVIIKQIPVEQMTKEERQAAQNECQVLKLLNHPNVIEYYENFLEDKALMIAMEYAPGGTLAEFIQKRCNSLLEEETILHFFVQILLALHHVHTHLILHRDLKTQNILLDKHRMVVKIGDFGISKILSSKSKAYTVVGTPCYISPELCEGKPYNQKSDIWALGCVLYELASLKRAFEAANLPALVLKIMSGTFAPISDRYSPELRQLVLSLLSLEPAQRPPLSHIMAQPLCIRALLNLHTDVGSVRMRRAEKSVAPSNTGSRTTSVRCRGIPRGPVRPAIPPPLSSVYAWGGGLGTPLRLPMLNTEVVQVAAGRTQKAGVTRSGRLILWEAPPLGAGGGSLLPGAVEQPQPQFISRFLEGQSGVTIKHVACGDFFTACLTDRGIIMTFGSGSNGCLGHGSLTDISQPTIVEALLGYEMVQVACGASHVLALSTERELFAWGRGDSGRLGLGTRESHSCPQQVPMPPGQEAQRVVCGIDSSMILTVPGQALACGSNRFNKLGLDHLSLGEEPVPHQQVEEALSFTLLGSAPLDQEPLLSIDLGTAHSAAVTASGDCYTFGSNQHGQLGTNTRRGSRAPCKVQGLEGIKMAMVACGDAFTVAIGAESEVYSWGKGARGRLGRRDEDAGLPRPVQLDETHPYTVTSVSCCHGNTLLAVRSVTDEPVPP
The conditions noted are these: NEK8.
Description: as §1

Assay [6] deals with T2, 363 human kinases (including Aurora A/B/C) (Homo sapiens, UniProt Q8TDC3).
T2 sequence (Q8TDC3 1-778): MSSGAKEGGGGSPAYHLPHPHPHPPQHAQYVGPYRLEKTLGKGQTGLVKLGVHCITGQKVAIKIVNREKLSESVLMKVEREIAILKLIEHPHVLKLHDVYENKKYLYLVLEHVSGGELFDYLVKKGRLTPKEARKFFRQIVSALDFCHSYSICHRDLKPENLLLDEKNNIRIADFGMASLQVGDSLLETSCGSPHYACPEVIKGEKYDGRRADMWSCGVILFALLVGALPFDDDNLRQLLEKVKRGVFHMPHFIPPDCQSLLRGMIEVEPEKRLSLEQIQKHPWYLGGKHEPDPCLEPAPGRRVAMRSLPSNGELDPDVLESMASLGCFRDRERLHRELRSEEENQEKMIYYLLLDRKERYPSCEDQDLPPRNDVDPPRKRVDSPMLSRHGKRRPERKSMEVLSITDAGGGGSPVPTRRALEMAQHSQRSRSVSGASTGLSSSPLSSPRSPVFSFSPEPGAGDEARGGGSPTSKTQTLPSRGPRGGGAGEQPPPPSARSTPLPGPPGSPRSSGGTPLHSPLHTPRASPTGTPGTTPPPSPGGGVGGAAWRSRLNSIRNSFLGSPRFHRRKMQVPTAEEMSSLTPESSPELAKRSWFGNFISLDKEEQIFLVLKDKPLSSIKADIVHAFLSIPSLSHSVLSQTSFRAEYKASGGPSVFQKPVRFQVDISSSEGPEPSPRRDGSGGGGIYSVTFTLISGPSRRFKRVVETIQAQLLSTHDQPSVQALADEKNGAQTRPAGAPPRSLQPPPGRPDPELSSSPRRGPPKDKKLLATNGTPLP
As to conditions: BRSK1, [ATP] 50 µM.
Description: as §1

In assay [7] the target is 363 human kinases (including Aurora A/B/C) (Homo sapiens, UniProt P06493). As to conditions: for % Enzyme Activity (relative to DMSO controls) / remaining activity at 0.5 µM: 500 nM; for remaining activity at 0.5 µM / remaining activity at 0.1 µM: read-out: % Enzyme Activity (relative to DMSO controls); for remaining activity at 0.1 µM: 100 nM.
Description: as §1
Assay [8] has as its target 363 human kinases (including Aurora A/B/C) (Homo sapiens, UniProt P50750). As to conditions: [ATP] 10 µM; for % Enzyme Activity (relative to DMSO controls) / remaining activity at 0.5 µM: 500 nM; for remaining activity at 0.5 µM / remaining activity at 0.1 µM: read-out: % Enzyme Activity (relative to DMSO controls); for remaining activity at 0.1 µM: 100 nM.
Description: as §1
The target in assay [9] is 363 human kinases (including Aurora A/B/C) (Homo sapiens, UniProt P36894). As to conditions: ALK3/BMPR1A, [ATP] 1 µM.
Description: as §1
The target in assay [10] is 363 human kinases (including Aurora A/B/C) (Homo sapiens, UniProt Q9Y2H1). As to conditions: STK38L/NDR2.
Description: as §1
The target in assay [11] is T3, 363 human kinases (including Aurora A/B/C) (Homo sapiens, UniProt Q16566).
T3 sequence (Q16566 1-473): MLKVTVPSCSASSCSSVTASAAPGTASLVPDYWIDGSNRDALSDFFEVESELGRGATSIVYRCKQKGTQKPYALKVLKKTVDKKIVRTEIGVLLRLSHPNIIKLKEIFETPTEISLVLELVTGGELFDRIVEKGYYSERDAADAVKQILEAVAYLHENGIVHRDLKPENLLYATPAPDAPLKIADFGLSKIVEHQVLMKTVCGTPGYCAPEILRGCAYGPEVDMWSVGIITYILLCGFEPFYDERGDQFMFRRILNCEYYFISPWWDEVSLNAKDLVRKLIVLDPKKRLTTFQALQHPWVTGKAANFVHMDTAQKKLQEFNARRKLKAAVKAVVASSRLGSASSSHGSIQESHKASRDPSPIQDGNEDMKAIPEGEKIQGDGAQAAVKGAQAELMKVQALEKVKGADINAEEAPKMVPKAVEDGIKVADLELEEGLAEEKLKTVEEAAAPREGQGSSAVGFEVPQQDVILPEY
As to conditions: CAMK4, [ATP] 10 µM.
Description: as §1

The mark [12] stands for this setting: 500 nM, read-out: % Enzyme Activity (relative to DMSO controls).
Where [13] appears, read: 100 nM, read-out: % Enzyme Activity (relative to DMSO controls).

These results are taken from paper PMC4685510, “A Cell Biologist’s Field Guide to Aurora Kinase Inhibitors” (Frontiers in Oncology, 2015).

Read-outs that look alike come from different tables or passages of the source.

363 human kinases (including Aurora A/B/C) (Homo sapiens, UniProt O60674), sequence (O60674 whole entry): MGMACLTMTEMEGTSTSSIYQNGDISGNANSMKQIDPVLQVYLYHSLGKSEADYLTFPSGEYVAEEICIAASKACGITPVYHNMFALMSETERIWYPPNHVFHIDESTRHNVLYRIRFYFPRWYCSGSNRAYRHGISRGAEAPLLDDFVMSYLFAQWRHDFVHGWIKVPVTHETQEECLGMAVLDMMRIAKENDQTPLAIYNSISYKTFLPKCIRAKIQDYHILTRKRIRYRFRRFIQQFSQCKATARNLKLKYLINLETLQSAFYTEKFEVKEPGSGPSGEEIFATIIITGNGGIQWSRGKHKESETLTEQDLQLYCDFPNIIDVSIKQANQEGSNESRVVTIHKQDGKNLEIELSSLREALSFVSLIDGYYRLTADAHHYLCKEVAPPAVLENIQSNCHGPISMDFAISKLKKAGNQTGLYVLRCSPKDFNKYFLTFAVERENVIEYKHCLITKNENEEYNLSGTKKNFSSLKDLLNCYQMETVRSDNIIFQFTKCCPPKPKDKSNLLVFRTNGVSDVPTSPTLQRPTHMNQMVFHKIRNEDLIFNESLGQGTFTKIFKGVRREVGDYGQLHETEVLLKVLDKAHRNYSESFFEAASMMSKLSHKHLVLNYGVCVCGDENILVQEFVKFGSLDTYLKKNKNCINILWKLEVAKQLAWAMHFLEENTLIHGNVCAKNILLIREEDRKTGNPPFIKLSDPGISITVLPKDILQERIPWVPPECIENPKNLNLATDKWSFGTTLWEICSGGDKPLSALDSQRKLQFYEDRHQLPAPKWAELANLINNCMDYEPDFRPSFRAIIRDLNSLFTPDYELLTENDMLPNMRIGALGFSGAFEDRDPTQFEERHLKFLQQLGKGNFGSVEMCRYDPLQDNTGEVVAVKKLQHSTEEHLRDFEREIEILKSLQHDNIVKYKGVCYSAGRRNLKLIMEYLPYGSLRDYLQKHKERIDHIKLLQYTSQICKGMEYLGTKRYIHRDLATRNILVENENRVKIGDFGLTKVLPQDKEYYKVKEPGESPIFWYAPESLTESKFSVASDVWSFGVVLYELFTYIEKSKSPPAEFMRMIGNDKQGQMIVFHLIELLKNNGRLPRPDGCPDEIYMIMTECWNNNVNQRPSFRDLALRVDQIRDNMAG
363 human kinases (including Aurora A/B/C) (Homo sapiens, UniProt P36894), sequence (P36894 24-532): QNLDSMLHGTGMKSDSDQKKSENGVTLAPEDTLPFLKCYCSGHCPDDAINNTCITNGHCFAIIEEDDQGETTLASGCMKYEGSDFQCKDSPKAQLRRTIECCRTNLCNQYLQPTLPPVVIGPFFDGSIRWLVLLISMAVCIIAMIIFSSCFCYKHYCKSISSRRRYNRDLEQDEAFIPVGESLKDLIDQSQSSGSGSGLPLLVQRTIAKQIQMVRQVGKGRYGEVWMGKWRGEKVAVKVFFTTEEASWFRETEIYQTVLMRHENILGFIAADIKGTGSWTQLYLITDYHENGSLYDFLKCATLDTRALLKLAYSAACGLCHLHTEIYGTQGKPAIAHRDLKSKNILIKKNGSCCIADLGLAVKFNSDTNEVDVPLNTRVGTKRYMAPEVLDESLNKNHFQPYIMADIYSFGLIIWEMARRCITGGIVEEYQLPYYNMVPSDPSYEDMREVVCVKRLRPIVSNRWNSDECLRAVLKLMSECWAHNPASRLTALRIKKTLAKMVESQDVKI
363 human kinases (including Aurora A/B/C) (Homo sapiens, UniProt P16591), sequence (P16591 whole entry): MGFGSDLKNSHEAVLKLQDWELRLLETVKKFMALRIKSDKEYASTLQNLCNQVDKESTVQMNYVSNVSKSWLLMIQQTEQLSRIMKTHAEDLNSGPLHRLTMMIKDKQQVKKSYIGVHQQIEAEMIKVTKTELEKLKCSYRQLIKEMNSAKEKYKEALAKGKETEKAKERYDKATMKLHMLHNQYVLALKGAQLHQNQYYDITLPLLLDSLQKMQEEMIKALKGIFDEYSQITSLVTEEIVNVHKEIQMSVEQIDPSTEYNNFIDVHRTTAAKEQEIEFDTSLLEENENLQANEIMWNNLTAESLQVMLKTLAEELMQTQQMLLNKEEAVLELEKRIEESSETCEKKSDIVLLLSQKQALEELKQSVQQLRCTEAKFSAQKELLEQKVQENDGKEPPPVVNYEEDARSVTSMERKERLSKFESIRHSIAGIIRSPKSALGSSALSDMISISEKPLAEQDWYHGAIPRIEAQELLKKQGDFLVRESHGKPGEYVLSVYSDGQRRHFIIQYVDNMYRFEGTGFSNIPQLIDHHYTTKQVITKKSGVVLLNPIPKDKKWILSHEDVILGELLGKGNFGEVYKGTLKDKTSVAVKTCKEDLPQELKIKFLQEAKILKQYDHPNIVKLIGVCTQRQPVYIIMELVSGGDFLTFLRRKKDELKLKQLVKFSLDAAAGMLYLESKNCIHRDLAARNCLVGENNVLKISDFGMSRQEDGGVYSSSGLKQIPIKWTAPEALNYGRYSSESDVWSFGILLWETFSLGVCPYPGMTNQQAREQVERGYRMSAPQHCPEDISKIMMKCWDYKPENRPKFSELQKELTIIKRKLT
363 human kinases (including Aurora A/B/C) (Homo sapiens, UniProt P04626), sequence (P04626 23-1255): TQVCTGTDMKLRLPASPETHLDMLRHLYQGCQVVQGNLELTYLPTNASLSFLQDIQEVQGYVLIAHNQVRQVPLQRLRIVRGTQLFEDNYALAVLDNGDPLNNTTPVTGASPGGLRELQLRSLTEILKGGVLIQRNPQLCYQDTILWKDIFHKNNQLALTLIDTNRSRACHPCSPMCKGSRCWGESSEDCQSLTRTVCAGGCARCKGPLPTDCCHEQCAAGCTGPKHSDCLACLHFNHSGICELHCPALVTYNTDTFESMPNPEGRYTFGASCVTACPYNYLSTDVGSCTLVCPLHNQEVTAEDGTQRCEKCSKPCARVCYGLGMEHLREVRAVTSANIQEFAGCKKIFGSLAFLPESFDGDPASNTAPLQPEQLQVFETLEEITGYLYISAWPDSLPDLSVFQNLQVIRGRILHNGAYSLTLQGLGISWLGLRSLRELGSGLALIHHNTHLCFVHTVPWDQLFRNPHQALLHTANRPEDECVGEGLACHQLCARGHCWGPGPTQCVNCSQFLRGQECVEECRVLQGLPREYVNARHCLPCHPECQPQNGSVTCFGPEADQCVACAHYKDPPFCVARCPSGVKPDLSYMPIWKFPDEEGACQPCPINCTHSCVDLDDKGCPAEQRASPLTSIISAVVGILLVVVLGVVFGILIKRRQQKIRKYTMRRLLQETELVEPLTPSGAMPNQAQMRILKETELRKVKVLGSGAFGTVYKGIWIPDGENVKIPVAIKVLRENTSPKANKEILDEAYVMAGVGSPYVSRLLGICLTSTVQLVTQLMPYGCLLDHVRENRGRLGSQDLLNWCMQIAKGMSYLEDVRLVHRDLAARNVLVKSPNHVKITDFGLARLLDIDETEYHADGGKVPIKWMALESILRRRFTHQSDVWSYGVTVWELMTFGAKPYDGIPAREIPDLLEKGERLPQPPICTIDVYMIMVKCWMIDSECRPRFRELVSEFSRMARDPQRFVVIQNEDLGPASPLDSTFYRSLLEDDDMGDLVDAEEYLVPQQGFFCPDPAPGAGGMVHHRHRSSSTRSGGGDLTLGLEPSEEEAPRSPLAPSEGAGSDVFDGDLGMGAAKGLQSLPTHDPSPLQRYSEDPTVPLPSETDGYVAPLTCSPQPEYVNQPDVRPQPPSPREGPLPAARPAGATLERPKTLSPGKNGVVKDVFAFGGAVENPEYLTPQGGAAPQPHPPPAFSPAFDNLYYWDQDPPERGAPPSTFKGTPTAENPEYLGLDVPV
363 human kinases (including Aurora A/B/C) (Homo sapiens, UniProt P06493), sequence (P06493 whole entry): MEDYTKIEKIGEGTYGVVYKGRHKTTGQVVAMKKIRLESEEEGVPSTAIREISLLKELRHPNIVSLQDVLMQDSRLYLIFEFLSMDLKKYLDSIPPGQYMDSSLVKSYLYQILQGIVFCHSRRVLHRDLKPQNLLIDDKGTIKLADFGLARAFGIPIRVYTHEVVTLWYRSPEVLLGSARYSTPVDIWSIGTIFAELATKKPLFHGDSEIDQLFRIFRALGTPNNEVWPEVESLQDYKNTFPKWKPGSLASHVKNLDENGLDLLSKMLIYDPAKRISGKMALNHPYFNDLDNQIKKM
363 human kinases (including Aurora A/B/C) (Homo sapiens, UniProt Q9Y2H1), sequence (Q9Y2H1 whole entry): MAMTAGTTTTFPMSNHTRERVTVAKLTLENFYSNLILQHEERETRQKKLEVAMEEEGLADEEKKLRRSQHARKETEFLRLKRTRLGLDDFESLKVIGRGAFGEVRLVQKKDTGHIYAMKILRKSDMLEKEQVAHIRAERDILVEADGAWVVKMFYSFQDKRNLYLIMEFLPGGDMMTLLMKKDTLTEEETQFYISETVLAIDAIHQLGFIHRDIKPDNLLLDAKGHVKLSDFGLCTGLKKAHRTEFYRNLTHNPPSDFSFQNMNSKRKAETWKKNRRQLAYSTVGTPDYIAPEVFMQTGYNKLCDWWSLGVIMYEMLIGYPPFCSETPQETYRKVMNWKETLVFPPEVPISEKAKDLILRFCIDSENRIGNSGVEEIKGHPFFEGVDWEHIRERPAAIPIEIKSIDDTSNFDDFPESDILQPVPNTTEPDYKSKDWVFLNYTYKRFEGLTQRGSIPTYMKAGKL
363 human kinases (including Aurora A/B/C) (Homo sapiens, UniProt P50750), sequence (P50750 whole entry): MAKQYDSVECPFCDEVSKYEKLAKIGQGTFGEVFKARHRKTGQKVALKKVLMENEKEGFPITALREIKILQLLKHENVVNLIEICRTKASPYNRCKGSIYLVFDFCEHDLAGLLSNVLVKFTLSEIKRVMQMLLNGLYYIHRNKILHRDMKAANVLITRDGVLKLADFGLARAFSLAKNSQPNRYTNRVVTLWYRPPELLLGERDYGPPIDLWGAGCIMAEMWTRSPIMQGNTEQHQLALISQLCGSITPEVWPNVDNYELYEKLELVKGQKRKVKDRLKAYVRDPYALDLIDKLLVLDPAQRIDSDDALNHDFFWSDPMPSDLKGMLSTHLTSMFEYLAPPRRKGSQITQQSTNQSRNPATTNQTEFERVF

For `O=C(c1cccc(Cl)c1F)N1CCN(Cc2cccc(Nc3nccs3)n2)CC1` [MK-8745], the “% Enzyme Activity (relative to DMSO controls)” value in assay [1] (500 nM) came to 82.62%; in assay [2] (500 nM) it was 99.40%; in [3] (500 nM), 95.75%; in assay [4] (500 nM) it was 62.84%; in assay [5] (500 nM), 91.43%; in assay [6] (500 nM), 97.71%. Moreover, the “% Enzyme Activity (relative to DMSO controls)” value in assay [7] (CDK1/cyclin A, [ATP] 10 µM) turned out to be 86.34%; in assay [7] (CDK1/cyclin B, [ATP] 20 µM), 78.80%; in assay [7] (CDK1/cyclin E, [ATP] 20 µM), 93.92%; in assay [8] (CDK9/cyclin K), 108.88%; in assay [8] (CDK9/cyclin T1), 190.89%; in [9] (500 nM), 83.31%. For the same molecule, the “% Enzyme Activity (relative to DMSO controls)” value was 96.64% in [10] (500 nM) and 101.38% in assay [11] (500 nM). The remaining activity at 0.5 µM was determined as 83.7% in assay [1] (setting [12]); 99.8% in [2] (setting [12]); 95.9% in assay [3] (setting [12]); 65.6% in assay [4] (setting [12]); 91.6% in assay [5] (setting [12]); 98.2% in assay [6] (setting [12]). Moreover, the remaining activity at 0.5 µM in [7] (CDK1/cyclin A, [ATP] 10 µM) was 86.8%; in assay [7] (CDK1/cyclin B, [ATP] 20 µM) it was 79.4%; in [7] (CDK1/cyclin E, [ATP] 20 µM), 94.9%; in assay [8] (CDK9/cyclin K), 109%; in [8] (CDK9/cyclin T1), 198%; in assay [9] (setting [12]), 84.6%. Further, the remaining activity at 0.5 µM in assay [10] (setting [12]) worked out at 98.4%; in assay [11] (setting [12]), 102%.

With `CCn1cc(-c2ccnc3[nH]c(-c4cccc(CN(C)C)c4)cc23)c(-c2ccc(NC(=O)N(C)C)cc2)n1` [GSK1070916], the remaining activity at 0.1 µM came to 96.5% in [1] (setting [13]); 103% in [2] (setting [13]); 63.8% in assay [3] (setting [13]); 104% in assay [4] (setting [13]); 97.8% in assay [5] (setting [13]); 85.9% in assay [6] (setting [13]). The remaining activity at 0.1 µM turned out to be 106% in assay [7] (CDK1/cyclin A, [ATP] 10 µM); 84.6% in assay [7] (CDK1/cyclin B, [ATP] 20 µM); 100% in assay [7] (CDK1/cyclin E, [ATP] 20 µM); 102% in assay [8] (CDK9/cyclin K); 91.5% in [8] (CDK9/cyclin T1); 87.6% in assay [9] (setting [13]). In addition, the values for the remaining activity at 0.1 µM in assay [10] (setting [13]) and in assay [11] (setting [13]) were 95.7% and 98.5%, respectively.
